Test results taken from US20260216190A1, “TREATMENT OF HEMATOLOGICAL MALIGNANCIES WITH INHIBITORS OF MENIN” (Kura Oncology, Inc., priority 2018, published 2026).

Molecular target: T1, menin-MLL interaction (Homo sapiens, UniProt O00255)
T1 sequence (O00255 1-610): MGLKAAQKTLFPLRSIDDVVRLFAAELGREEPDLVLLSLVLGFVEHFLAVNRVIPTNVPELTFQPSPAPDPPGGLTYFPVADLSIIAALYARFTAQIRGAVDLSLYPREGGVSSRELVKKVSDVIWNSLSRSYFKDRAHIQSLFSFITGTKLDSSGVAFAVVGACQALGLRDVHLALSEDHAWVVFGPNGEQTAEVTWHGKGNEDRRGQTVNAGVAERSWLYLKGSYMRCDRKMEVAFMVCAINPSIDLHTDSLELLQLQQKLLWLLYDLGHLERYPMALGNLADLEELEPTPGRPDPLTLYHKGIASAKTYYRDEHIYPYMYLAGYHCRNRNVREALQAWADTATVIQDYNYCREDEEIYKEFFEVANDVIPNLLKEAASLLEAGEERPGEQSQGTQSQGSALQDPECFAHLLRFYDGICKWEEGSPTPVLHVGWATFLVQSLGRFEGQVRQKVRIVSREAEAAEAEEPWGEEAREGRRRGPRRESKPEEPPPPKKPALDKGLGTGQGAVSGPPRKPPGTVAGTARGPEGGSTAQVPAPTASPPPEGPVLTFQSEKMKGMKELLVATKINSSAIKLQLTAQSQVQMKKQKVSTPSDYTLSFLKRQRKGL
Test: Fluorescence polarization (FP) competition assay
Assay type: binding
Settings: read-out: Menin MLL 4-43 IC50

Compound | IC50 [nM]
COCCNS(=O)(=O)N1CCN([C@@H](C)Cn2c(C#N)cc3c(C)c(CN4CCC(Nc5ncnc6sc(CC(F)(F)F)cc56)CC4)ccc32)CC1 [Compound I-142] | 50 to 250
Cc1c(CN2CCC(Nc3ncnc4sc(CC(F)(F)F)cc34)CC2)ccc2c1cc(C#N)n2CC(C1CC1)N1CCN(S(C)(=O)=O)CC1 (centres unmarked) [Compound I-23] | < 50
